Where a name gives a salt, the structure may show the parent alone.
Key:
HIS-TGFβR2 WT = HIS-TGFβR2 WT (Homo sapiens, UniProt P37173); experiment: HTRF probe-displacement assay with HIS-TGFβR2 WT; assay type: binding; settings: 1 nM HIS-TGFβR2 WT, labeled probe at Kd, 1 hour at room temperature
Description: (§1) The reaction is incubated for 1 hour at room temperature and the HTRF signal was measured on an Envision plate reader (Ex: 340 nm; Em: 520 nm/495 nm). Inhibition data were calculated by comparison to no enzyme control reactions for 100% inhibition and vehicle-only reactions for 0% inhibition. The final concentration of reagents in the assay are 1 nM HIS-TGFβR1 T204D or HIS-TGFβR2 WT, 0.2 nM anti-HIS detection antibody, labeled small molecule probe (at Kd) and 0.5% DMSO. Dose response curves were generated to determine the concentration required inhibiting 50% of kinase activity (IC50). Compounds were dissolved at 10 mM in dimethylsulfoxide (DMSO) and evaluated at eleven concentrations. IC50 values were derived by non-linear regression analysis.

HIS-TGFβR1 T204D = biological target: T1, HIS-TGFβR1 T204D (Homo sapiens, UniProt P36897, T204D); experiment: HTRF probe-displacement assay with HIS-TGFβR1 T204D; assay type: binding; settings: 1 nM HIS-TGFβR1 T204D, labeled probe at Kd, 1 hour at room temperature
T1 sequence (P36897 34-503 T204D): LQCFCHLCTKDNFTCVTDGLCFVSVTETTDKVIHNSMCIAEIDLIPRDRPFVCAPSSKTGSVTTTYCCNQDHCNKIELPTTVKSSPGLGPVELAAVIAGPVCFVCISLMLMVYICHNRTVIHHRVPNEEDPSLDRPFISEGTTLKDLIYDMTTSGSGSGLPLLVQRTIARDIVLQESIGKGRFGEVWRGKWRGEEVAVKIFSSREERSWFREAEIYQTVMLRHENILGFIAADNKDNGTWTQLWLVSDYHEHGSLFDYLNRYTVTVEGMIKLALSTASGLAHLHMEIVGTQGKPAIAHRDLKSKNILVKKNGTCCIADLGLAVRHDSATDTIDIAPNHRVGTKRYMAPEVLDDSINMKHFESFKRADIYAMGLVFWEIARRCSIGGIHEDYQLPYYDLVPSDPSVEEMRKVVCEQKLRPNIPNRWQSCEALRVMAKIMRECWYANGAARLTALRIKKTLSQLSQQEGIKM
Description: as §1

HIS-TGFβR2 WT, sequence (P37173 23-567): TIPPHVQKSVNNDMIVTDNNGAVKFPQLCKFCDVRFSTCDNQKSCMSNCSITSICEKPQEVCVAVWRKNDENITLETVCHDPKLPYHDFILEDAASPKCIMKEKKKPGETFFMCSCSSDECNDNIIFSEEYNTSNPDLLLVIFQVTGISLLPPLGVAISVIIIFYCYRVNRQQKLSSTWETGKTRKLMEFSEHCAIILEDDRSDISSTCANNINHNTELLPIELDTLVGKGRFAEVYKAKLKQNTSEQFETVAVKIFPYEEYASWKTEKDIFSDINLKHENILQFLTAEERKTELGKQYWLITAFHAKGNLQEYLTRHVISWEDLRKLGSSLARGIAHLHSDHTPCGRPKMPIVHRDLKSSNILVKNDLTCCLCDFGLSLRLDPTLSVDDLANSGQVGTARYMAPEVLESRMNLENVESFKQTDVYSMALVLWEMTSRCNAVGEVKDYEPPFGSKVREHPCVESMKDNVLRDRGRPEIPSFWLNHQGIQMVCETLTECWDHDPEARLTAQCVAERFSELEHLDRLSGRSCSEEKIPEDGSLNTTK

| SMILES | IC50 (HIS-TGFβR2 WT) | IC50 (HIS-TGFβR1 T204D) |
| --- | --- | --- |
| CC(C)(C)Nc1cnc2ccc(-c3c[nH]nc3-c3ccc(F)cc3)cn12 [Example 15, N-(tert-butyl)-6-(3-(4-fluorophenyl)-1H-pyrazol-4-yl)imidazo[1,2-a]pyridin-3-amine] | 12.7 µM | 0.502 µM |
| Cc1cccc(-c2c(-c3ccc4ncc(C#N)n4c3)cnn2C2CC2)n1 [Example 22, 6-(1-cyclopropyl-5-(6-methylpyridin-2-yl)-1H-pyrazol-4-yl)imidazo[1,2-a]pyridine-3-carbonitrile] | 7.55 µM | 0.035 µM |
| Cc1cccc(-c2nn(C)cc2-c2ccc3ncc(C#N)n3n2)n1 [Example 25, 6-(1-methyl-3-(6-methylpyridin-2-yl)-1H-pyrazol-4-yl)imidazo[1,2-b]pyridazine-3-carbonitrile] | 9.74 µM | 0.003 µM |
| Cc1cccc(-c2nn(CC(F)F)cc2-c2ccc3ncc(C#N)n3c2)n1 [Example 27, 6-(1-(2,2-difluoroethyl)-3-(6-methylpyridin-2-yl)-1H-pyrazol-4-yl)imidazo[1,2-a]pyridine-3-carbonitrile] | 11.4 µM | 0.003 µM |
| Fc1ccc(-c2n[nH]cc2-c2cc(F)c3nccn3c2)cc1 [Example 30, 8-fluoro-6-(3-(4-fluorophenyl)-1H-pyrazol-4-yl)imidazo[1,2-a]pyridine] | 10.3 µM | 0.591 µM |
| Fc1ccc(-c2n[nH]cc2-c2ccc3nncn3c2)cc1 [Example 31, 6-(3-(4-fluorophenyl)-1H-pyrazol-4-yl)-[1,2,4]triazolo[4,3-a]pyridine, TFA] | 9.17 µM | 0.112 µM |
| CC(=O)Nc1cc(-c2c[nH]nc2-c2ccc(F)cc2)cn2ccnc12 [Example 33, N-(6-(3-(4-fluorophenyl)-1H-pyrazol-4-yl)imidazo[1,2-a]pyridin-8-yl)acetamide] | 7.06 µM | 0.811 µM |
| Fc1ccc(-c2n[nH]cc2-c2ccc3nccn3c2)cc1 [Example 34, 6-(3-(4-fluorophenyl)-1H-pyrazol-4-yl)imidazo[1,2-a]pyridine] | 5.02 µM | 0.014 µM |

Now those with a lower IC50 (HIS-TGFβR2 WT), led by results:

| IC50 (HIS-TGFβR2 WT) | IC50 (HIS-TGFβR1 T204D) | SMILES |
| --- | --- | --- |
| 1.45 µM | 0.001 µM | Cc1cccc(-c2n[nH]cc2-c2ccc3ncc(C#N)n3n2)n1 [Example 20, 6-(3-(6-methylpyridin-2-yl)-1H-pyrazol-4-yl)imidazo[1,2-b]pyridazine-3-carbonitrile] |
| 2.48 µM | 0.001 µM | Cc1cccc(-c2nn(C)cc2-c2ccc3ncc(C#N)n3c2)n1 [Example 23, 6-(1-methyl-3-(6-methylpyridin-2-yl)-1H-pyrazol-4-yl)imidazo[1,2-a]pyridine-3-carbonitrile] |
| 0.627 µM | 0.001 µM | Cc1cccc(-c2nn(C)cc2-c2ccc3ncc(C(N)=O)n3c2)n1 [Example 24, 6-(1-methyl-3-(6-methylpyridin-2-yl)-1H-pyrazol-4-yl)imidazo[1,2-a]pyridine-3-carboxamide] |
| 0.075 µM | 0.001 µM | Cc1cccc(-c2nn(CC(F)F)cc2-c2ccc3ncc(C(N)=O)n3c2)n1 [Example 28, 6-(1-(2,2-difluoroethyl)-3-(6-methylpyridin-2-yl)-1H-pyrazol-4-yl)imidazo[1,2-a]pyridine-3-carboxamide] |
| 1.1 µM | 0.003 µM | Fc1ccc(-c2n[nH]cc2-c2ccn3ncnc3c2)cc1 [Example 29, 7-(3-(4-fluorophenyl)-1H-pyrazol-4-yl)-[1,2,4]triazolo[1,5-a]pyridine] |
| 0.221 µM | 0.011 µM | N#Cc1cnc2ccc(-c3c[nH]nc3-c3ccc(F)cc3)cn12 [Example 35, 6-(3-(4-fluorophenyl)-1H-pyrazol-4-yl)imidazo[1,2-a]pyridine-3-carbonitrile] |
| 0.696 µM | 0.002 µM | NC(=O)c1cnc2ccc(-c3c[nH]nc3-c3ccc(F)cc3)cn12 [Example 36, 6-(3-(4-fluorophenyl)-1H-pyrazol-4-yl)imidazo[1,2-a]pyridine-3-carboxamide] |

From patent publication US20190292179A1 (BRISTOL-MYERS SQUIBB COMPANY, priority 2016, published 2019)
